According to patent US9340590B2 (priority 2011, dated 2016):
Positions of bridges follow the written chain, without caps; N, C: chain ends. Non-standard residues stand in square brackets, D forms with d. Residues, ends and D or L forms follow the SMILES beside them. *: point of attachment. Pent4ynoyl = C#CCCC(=O)*; Nva = CCC[C@H](N)C(=O)O; Abu = CC[C@H](N)C(=O)O

What was measured:
Test in all cases: cell-based
[1] = target: hNav1.3 (Homo sapiens, UniProt Q9NY46); details: IonWorks Quattro, use-dependent block, hNav1.3; read-out: IWQ Use Nav1.3
[2] = target: hNav1.7 (Homo sapiens, UniProt Q15858); assay type: cell-based; details: IonWorks Quattro, use-dependent block, hNav1.7; read-out: IWQ Use Nav1.7
Sequence of hNav1.7 (Q15858 whole entry, looked up): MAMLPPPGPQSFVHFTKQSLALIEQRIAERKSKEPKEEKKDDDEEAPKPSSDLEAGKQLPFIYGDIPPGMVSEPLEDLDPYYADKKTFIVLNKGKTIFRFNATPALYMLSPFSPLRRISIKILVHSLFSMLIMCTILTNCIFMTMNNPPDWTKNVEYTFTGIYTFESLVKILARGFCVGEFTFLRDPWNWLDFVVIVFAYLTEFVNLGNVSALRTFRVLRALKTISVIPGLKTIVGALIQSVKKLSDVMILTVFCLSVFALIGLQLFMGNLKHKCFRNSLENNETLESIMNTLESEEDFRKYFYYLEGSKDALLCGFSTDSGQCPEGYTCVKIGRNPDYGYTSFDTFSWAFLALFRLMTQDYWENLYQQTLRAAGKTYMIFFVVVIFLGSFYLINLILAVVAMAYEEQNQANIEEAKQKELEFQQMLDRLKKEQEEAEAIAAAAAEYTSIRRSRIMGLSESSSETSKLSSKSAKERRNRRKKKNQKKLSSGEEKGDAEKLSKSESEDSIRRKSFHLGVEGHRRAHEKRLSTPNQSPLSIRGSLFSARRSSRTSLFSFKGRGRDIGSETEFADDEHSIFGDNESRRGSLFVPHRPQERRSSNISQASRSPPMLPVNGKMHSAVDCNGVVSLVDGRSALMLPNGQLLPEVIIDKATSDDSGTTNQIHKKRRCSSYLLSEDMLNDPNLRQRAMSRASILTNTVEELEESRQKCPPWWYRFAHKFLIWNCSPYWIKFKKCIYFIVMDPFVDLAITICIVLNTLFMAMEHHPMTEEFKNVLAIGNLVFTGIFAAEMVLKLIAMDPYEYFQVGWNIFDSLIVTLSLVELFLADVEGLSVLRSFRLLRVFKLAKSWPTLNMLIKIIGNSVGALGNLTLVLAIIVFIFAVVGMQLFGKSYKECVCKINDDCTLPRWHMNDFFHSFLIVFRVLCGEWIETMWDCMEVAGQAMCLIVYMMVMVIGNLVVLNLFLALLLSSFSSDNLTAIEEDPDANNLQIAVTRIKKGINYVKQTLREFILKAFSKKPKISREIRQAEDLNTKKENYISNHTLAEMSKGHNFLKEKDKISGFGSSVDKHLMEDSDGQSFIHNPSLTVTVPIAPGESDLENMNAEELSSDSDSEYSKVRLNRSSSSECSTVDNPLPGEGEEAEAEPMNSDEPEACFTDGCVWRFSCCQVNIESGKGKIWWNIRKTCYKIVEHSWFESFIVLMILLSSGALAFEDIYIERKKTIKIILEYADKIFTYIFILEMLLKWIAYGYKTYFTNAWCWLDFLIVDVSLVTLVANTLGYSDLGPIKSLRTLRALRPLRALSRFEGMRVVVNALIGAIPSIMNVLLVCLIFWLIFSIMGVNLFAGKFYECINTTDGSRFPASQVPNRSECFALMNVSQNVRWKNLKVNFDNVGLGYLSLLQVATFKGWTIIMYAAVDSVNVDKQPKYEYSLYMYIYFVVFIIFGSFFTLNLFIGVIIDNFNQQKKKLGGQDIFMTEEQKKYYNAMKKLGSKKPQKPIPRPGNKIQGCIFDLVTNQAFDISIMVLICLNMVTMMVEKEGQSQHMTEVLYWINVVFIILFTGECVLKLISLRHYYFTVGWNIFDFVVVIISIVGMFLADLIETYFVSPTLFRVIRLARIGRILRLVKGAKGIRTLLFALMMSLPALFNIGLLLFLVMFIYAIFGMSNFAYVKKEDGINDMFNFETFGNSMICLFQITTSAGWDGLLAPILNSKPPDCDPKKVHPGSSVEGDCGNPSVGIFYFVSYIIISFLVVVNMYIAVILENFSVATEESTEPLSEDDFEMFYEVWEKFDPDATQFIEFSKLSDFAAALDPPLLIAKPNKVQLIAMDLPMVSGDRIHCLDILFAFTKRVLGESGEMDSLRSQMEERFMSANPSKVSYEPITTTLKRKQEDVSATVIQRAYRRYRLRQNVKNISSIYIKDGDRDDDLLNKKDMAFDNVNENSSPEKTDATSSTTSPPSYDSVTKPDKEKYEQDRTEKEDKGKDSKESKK

[3] = target: hNav1.5 (Homo sapiens, UniProt Q14524); details: IonWorks Quattro, use-dependent block, hNav1.5; read-out: IWQ Use Nav1.5
Sequence of hNav1.5 (Q14524 whole entry, looked up): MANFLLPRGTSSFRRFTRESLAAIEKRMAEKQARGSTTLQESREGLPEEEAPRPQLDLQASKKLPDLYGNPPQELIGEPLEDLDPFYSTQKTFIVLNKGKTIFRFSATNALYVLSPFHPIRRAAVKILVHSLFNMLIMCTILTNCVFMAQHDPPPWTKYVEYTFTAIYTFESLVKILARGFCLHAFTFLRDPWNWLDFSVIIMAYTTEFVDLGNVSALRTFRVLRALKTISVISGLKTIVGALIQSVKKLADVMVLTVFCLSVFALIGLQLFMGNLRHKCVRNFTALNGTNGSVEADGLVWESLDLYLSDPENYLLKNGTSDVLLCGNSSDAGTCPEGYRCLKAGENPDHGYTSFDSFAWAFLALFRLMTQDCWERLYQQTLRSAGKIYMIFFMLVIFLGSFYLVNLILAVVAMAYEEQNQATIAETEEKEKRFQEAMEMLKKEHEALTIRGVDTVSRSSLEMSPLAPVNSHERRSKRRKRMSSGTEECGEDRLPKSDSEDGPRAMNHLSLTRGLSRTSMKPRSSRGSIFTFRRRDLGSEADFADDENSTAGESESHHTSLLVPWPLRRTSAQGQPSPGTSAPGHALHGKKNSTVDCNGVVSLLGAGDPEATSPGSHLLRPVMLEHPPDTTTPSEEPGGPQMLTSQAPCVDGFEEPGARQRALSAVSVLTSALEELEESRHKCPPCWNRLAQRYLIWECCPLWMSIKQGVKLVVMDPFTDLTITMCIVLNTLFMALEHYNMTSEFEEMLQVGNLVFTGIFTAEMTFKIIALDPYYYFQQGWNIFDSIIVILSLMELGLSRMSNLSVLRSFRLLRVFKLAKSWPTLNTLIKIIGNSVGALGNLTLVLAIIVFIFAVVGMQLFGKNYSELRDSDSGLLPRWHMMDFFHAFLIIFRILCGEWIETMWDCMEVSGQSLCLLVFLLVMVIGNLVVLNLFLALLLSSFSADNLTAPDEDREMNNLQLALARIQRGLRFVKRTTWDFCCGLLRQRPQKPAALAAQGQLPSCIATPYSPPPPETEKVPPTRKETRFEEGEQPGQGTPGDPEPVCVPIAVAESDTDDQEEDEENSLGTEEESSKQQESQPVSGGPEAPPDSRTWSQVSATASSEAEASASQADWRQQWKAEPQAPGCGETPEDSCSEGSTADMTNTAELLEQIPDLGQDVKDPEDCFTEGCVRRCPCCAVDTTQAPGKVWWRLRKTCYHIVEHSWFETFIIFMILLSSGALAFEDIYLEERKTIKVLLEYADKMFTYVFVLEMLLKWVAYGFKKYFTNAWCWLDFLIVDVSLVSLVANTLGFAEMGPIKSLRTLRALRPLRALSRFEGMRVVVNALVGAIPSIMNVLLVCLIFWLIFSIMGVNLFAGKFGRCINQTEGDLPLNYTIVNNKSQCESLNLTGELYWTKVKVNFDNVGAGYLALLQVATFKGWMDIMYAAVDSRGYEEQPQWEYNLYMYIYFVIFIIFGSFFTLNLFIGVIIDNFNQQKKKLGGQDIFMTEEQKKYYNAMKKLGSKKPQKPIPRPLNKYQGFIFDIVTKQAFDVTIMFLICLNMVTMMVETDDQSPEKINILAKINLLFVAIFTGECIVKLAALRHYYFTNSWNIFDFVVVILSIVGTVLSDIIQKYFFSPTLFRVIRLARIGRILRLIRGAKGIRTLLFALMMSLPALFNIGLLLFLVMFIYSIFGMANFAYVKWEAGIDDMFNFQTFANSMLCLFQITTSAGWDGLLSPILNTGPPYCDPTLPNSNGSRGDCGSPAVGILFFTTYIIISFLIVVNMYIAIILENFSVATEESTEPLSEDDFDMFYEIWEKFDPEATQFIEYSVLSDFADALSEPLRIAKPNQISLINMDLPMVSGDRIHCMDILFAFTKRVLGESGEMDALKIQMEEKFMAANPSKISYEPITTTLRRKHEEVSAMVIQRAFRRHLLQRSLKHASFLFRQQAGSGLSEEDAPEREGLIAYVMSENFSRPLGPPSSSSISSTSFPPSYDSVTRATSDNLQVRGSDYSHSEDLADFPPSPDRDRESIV

| Structure (SMILES) | IC50 [1] | IC50 [2] | IC50 [3] |
| --- | --- | --- | --- |
| CC[C@H](C)[C@@H]1NC(=O)[C@@H]2CSSC[C@@H]3NC(=O)[C@H](C(C)C)NC(=O)[C@H](CC(C)C)NC(=O)[C@H](CC(N)=O)NC(=O)[C@@H]4CCCN4C(=O)[C@H](CCCNC(=N)N)NC(=O)[C@H](CSSC[C@H](NC(=O)[C@@H](N)CC(=O)O)C(=O)N[C@@H](CC(C)C)C(=O)NCC(=O)NCC(=O)N[C@@H](C(C)C)C(=O)N[C@@H](CCCNC(=N)N)C(=O)N[C@@H](CCCCN)C(=O)N2)NC(=O)[C@H](CSSC[C@@H](C(=O)N[C@@H](CCCCN)C(=O)N[C@@H](Cc2ccc(O)cc2)C(=O)N[C@H](C(=O)N[C@@H](Cc2ccccc2)C(N)=O)C(C)C)NC(=O)[C@H](Cc2c[nH]c4ccccc24)NC(=O)[C@H](CCCCN)NC(=O)[C@H](Cc2c[nH]cn2)NC(=O)[C@H]([C@@H](C)O)NC(=O)[C@H](CCCNC(=N)N)NC(=O)[C@H](CO)NC3=O)NC(=O)[C@H](CCCCN)NC(=O)[C@H](CC(=O)O)NC(=O)[C@H](CC(N)=O)NC(=O)[C@H](CC(=O)O)NC(=O)[C@@H]2CCCN2C1=O [compound 751] (H-DCLGGVRKCIPDNDKCCRPNLVCSRTHKWCKYVF-NH2; disulfide 2-17, 9-23, 16-30) | > 5 µM | > 5 µM | 25.5 µM |
| CC[C@H](C)[C@@H]1NC(=O)CNC(=O)CNC(=O)[C@H](CC(C)C)NC(=O)[C@@H](NC(=O)[C@@H](N)CC(=O)O)CSSC[C@@H]2NC(=O)[C@@H]3CSSC[C@@H](C(=O)N[C@@H](CCCCN)C(=O)N[C@@H](Cc4ccc(O)cc4)C(=O)N[C@H](C(=O)N[C@@H](Cc4ccccc4)C(N)=O)C(C)C)NC(=O)[C@H](Cc4c[nH]c5ccccc45)NC(=O)[C@H](CCCCN)NC(=O)[C@H](Cc4c[nH]cn4)NC(=O)[C@H]([C@@H](C)O)NC(=O)[C@H](CCCNC(=N)N)NC(=O)[C@H](CO)NC(=O)[C@H](CSSC[C@H](NC(=O)[C@H](CCCCN)NC(=O)[C@H](CCCNC(=N)N)NC1=O)C(=O)N[C@@H]([C@@H](C)CC)C(=O)N1CCC[C@H]1C(=O)N[C@@H](CC(=O)O)C(=O)N[C@@H](CC(N)=O)C(=O)N[C@@H](CC(=O)O)C(=O)N[C@@H](CCCCN)C(=O)N3)NC(=O)[C@H](C(C)C)NC(=O)[C@H](CC(C)C)NC(=O)[C@H](CC(N)=O)NC(=O)[C@@H]1CCCN1C(=O)[C@H](CCCNC(=N)N)NC2=O [compound 752] (H-DCLGGIRKCIPDNDKCCRPNLVCSRTHKWCKYVF-NH2; disulfide 2-17, 9-23, 16-30) | > 5 µM | > 5 µM | 25.4 µM |
| CC(C)C[C@@H]1NC(=O)[C@@H](NC(=O)[C@@H](N)CC(=O)O)CSSC[C@@H]2NC(=O)[C@@H]3CSSC[C@@H](C(=O)N[C@@H](CCCCN)C(=O)N[C@@H](Cc4ccc(O)cc4)C(=O)N[C@H](C(=O)N[C@@H](Cc4ccccc4)C(N)=O)C(C)C)NC(=O)[C@H](Cc4c[nH]c5ccccc45)NC(=O)[C@H](CCCCN)NC(=O)[C@H](Cc4c[nH]cn4)NC(=O)[C@H]([C@@H](C)O)NC(=O)[C@H](CCCNC(=N)N)NC(=O)[C@H](CO)NC(=O)[C@H](CSSC[C@H](NC(=O)[C@H](CCCCN)NC(=O)[C@H](CCCNC(=N)N)NC(=O)[C@H](Cc4ccccc4)NC(=O)CNC(=O)CNC1=O)C(=O)N[C@@H](CCC(=O)O)C(=O)N1CCC[C@H]1C(=O)N[C@@H](CC(=O)O)C(=O)N[C@@H](CC(N)=O)C(=O)N[C@@H](CC(=O)O)C(=O)N[C@@H](CCCCN)C(=O)N3)NC(=O)[C@H](C(C)C)NC(=O)[C@H](CC(C)C)NC(=O)[C@H](CC(N)=O)NC(=O)[C@@H]1CCCN1C(=O)[C@H](CCCNC(=N)N)NC2=O [compound 754] (H-DCLGGFRKCEPDNDKCCRPNLVCSRTHKWCKYVF-NH2; disulfide 2-17, 9-23, 16-30) | 0.33 µM | 0.35 µM | 34.2 µM |
| CC[C@H](C)[C@@H]1NC(=O)[C@@H]2CSSC[C@@H]3NC(=O)[C@H](C(C)C)NC(=O)[C@H](CC(C)C)NC(=O)[C@H](CC(N)=O)NC(=O)[C@@H]4CCCN4C(=O)[C@H](CCCNC(=N)N)NC(=O)[C@H](CSSC[C@H](NC(=O)[C@@H](N)CC(=O)O)C(=O)N[C@@H](CC(C)C)C(=O)NCC(=O)NCC(=O)N[C@@H](Cc4ccccc4)C(=O)N[C@@H](CCCNC(=N)N)C(=O)N[C@@H](CCCCN)C(=O)N2)NC(=O)[C@H](CSSC[C@@H](C(=O)N[C@@H](CCCCN)C(=O)N[C@@H](Cc2ccc(O)cc2)C(=O)N[C@H](C(=O)N[C@@H](Cc2ccccc2)C(N)=O)C(C)C)NC(=O)[C@H](Cc2c[nH]c4ccccc24)NC(=O)[C@H](CCC(=O)O)NC(=O)[C@H](Cc2c[nH]cn2)NC(=O)[C@H]([C@@H](C)O)NC(=O)[C@H](CCCNC(=N)N)NC(=O)[C@H](CO)NC3=O)NC(=O)[C@H](CCCCN)NC(=O)[C@H](CC(=O)O)NC(=O)[C@H](CC(N)=O)NC(=O)[C@H](CC(=O)O)NC(=O)[C@@H]2CCCN2C1=O [compound 755] (H-DCLGGFRKCIPDNDKCCRPNLVCSRTHEWCKYVF-NH2; disulfide 2-17, 9-23, 16-30) | > 5 µM | > 5 µM | 15.3 µM |
| C#CCCC(=O)N[C@@H](CC(=O)O)C(=O)N[C@H]1CSSC[C@@H]2NC(=O)[C@@H]3CSSC[C@@H](C(=O)N[C@@H](CCCCN)C(=O)N[C@@H](Cc4ccc(O)cc4)C(=O)N[C@H](C(=O)N[C@@H](Cc4ccccc4)C(N)=O)C(C)C)NC(=O)[C@H](Cc4c[nH]c5ccccc45)NC(=O)[C@H](CCCNC(=N)N)NC(=O)[C@H](Cc4c[nH]cn4)NC(=O)[C@H]([C@@H](C)O)NC(=O)[C@H](CCCNC(=N)N)NC(=O)[C@H](CO)NC(=O)[C@H](CSSC[C@H](NC(=O)[C@H](CCCCN)NC(=O)[C@H](CCCNC(=N)N)NC(=O)[C@H](Cc4ccccc4)NC(=O)[C@H](C)NC(=O)CNC(=O)[C@H](CC(C)C)NC1=O)C(=O)N[C@@H]([C@@H](C)CC)C(=O)N1CCC[C@H]1C(=O)N[C@@H](CC(=O)O)C(=O)N[C@@H](CC)C(=O)N[C@@H](CC(=O)O)C(=O)N[C@@H](CCCCN)C(=O)N3)NC(=O)[C@H](C(C)C)NC(=O)[C@H](CC(C)C)NC(=O)[C@H](CC(N)=O)NC(=O)[C@@H]1CCCN1C(=O)[C@H](CCCNC(=N)N)NC2=O [compound 756] (Pent4ynoyl-DCLGAFRKCIPD[Abu]DKCCRPNLVCSRTHRWCKYVF-NH2; disulfide 2-17, 9-23, 16-30) | 0.26 µM | 0.18 µM | 44.4 µM |
| C#CCCC(=O)N[C@@H](CC(=O)O)C(=O)N[C@H]1CSSC[C@@H]2NC(=O)[C@@H]3CSSC[C@@H](C(=O)N[C@@H](CCCCN)C(=O)N[C@@H](Cc4ccc(O)cc4)C(=O)N[C@H](C(=O)N[C@@H](Cc4ccccc4)C(N)=O)C(C)C)NC(=O)[C@H](Cc4c[nH]c5ccccc45)NC(=O)[C@H](CCCCN)NC(=O)[C@H](Cc4c[nH]cn4)NC(=O)[C@H]([C@@H](C)O)NC(=O)[C@H](CCCNC(=N)N)NC(=O)[C@H](CO)NC(=O)[C@H](CSSC[C@H](NC(=O)[C@H](CCCCN)NC(=O)[C@H](CCCNC(=N)N)NC(=O)[C@H](Cc4ccccc4)NC(=O)[C@H](C)NC(=O)CNC(=O)[C@H](CC(C)C)NC1=O)C(=O)N[C@@H]([C@@H](C)CC)C(=O)N1CCC[C@H]1C(=O)N[C@@H](CC(=O)O)C(=O)N[C@@H](CC)C(=O)N[C@@H](CC(=O)O)C(=O)N[C@@H](CCCCN)C(=O)N3)NC(=O)[C@H](C(C)C)NC(=O)[C@H](CC(C)C)NC(=O)[C@H](CC(N)=O)NC(=O)[C@@H]1CCCN1C(=O)[C@H](CCCNC(=N)N)NC2=O [compound 757] (Pent4ynoyl-DCLGAFRKCIPD[Abu]DKCCRPNLVCSRTHKWCKYVF-NH2; disulfide 2-17, 9-23, 16-30) | 0.28 µM | 0.71 µM | 34.9 µM |
| C#CCCC(=O)N[C@@H](CC(=O)O)C(=O)N[C@H]1CSSC[C@@H]2NC(=O)[C@@H]3CSSC[C@@H](C(=O)N[C@@H](CCCCN)C(=O)N[C@@H](Cc4ccc(O)cc4)C(=O)N[C@H](C(=O)N[C@@H](Cc4ccccc4)C(N)=O)C(C)C)NC(=O)[C@H](Cc4c[nH]c5ccccc45)NC(=O)[C@H](CCCCN)NC(=O)[C@H](Cc4c[nH]cn4)NC(=O)[C@H]([C@@H](C)O)NC(=O)[C@H](CCCNC(=N)N)NC(=O)[C@H](CO)NC(=O)[C@H](CSSC[C@H](NC(=O)[C@H](CCCCN)NC(=O)[C@H](CCCNC(=N)N)NC(=O)[C@H](CC(C)C)NC(=O)[C@H](CC)NC(=O)CNC(=O)[C@H](CC(C)C)NC1=O)C(=O)N[C@@H]([C@@H](C)CC)C(=O)N1CCC[C@H]1C(=O)N[C@@H](CC(=O)O)C(=O)N[C@@H](CC)C(=O)N[C@@H](CC(=O)O)C(=O)N[C@@H](CCCCN)C(=O)N3)NC(=O)[C@H](C(C)C)NC(=O)[C@H](CC(C)C)NC(=O)[C@H](CC(N)=O)NC(=O)[C@@H]1CCCN1C(=O)[C@H](CCCNC(=N)N)NC2=O [compound 758] (Pent4ynoyl-DCLG[Abu]LRKCIPD[Abu]DKCCRPNLVCSRTHKWCKYVF-NH2; disulfide 2-17, 9-23, 16-30) | 0.69 µM | 0.46 µM | 32.7 µM |
| C#CCCC(=O)N[C@@H](CC(=O)O)C(=O)N[C@H]1CSSC[C@@H]2NC(=O)[C@@H]3CSSC[C@@H](C(=O)N[C@@H](CCCCN)C(=O)N[C@@H](Cc4ccc(O)cc4)C(=O)N[C@H](C(=O)N[C@@H](Cc4ccccc4)C(N)=O)C(C)C)NC(=O)[C@H](Cc4c[nH]c5ccccc45)NC(=O)[C@H](CCCNC(=N)N)NC(=O)[C@H](Cc4c[nH]cn4)NC(=O)[C@H]([C@@H](C)O)NC(=O)[C@H](CCCNC(=N)N)NC(=O)[C@H](CO)NC(=O)[C@H](CSSC[C@H](NC(=O)[C@H](CCCCN)NC(=O)[C@H](CCCNC(=N)N)NC(=O)[C@H](CC(C)C)NC(=O)[C@H](CCC)NC(=O)CNC(=O)[C@H](CC(C)C)NC1=O)C(=O)N[C@@H]([C@@H](C)CC)C(=O)N1CCC[C@H]1C(=O)N[C@@H](CC(=O)O)C(=O)N[C@@H](CC)C(=O)N[C@@H](CC(=O)O)C(=O)N[C@@H](CCCCN)C(=O)N3)NC(=O)[C@H](C(C)C)NC(=O)[C@H](CC(C)C)NC(=O)[C@H](CC(N)=O)NC(=O)[C@@H]1CCCN1C(=O)[C@H](CCCNC(=N)N)NC2=O [compound 759] (Pent4ynoyl-DCLG[Nva]LRKCIPD[Abu]DKCCRPNLVCSRTHRWCKYVF-NH2; disulfide 2-17, 9-23, 16-30) | 0.23 µM | 0.1 µM | 46.2 µM |
